pIC50: −log10 of the molar value.
Assays:
HCT-116 = experiment: Antiproliferative activity against human HCT-116 cells measured after 72 hrs by MTT assay; assay type: functional, cell-based; settings: HCT-116, 72 h
[1] = target: T1, Protein deacetylase HDAC6 (Homo sapiens, UniProt Q9UBN7); experiment: Inhibition of recombinant HDAC6 (unknown origin) using Ac-peptide-AMC as substrate preincubated for 15 mins followed by substrate addition and measured after 60 mins by fluorescence assay
T1 sequence (Q9UBN7 whole entry): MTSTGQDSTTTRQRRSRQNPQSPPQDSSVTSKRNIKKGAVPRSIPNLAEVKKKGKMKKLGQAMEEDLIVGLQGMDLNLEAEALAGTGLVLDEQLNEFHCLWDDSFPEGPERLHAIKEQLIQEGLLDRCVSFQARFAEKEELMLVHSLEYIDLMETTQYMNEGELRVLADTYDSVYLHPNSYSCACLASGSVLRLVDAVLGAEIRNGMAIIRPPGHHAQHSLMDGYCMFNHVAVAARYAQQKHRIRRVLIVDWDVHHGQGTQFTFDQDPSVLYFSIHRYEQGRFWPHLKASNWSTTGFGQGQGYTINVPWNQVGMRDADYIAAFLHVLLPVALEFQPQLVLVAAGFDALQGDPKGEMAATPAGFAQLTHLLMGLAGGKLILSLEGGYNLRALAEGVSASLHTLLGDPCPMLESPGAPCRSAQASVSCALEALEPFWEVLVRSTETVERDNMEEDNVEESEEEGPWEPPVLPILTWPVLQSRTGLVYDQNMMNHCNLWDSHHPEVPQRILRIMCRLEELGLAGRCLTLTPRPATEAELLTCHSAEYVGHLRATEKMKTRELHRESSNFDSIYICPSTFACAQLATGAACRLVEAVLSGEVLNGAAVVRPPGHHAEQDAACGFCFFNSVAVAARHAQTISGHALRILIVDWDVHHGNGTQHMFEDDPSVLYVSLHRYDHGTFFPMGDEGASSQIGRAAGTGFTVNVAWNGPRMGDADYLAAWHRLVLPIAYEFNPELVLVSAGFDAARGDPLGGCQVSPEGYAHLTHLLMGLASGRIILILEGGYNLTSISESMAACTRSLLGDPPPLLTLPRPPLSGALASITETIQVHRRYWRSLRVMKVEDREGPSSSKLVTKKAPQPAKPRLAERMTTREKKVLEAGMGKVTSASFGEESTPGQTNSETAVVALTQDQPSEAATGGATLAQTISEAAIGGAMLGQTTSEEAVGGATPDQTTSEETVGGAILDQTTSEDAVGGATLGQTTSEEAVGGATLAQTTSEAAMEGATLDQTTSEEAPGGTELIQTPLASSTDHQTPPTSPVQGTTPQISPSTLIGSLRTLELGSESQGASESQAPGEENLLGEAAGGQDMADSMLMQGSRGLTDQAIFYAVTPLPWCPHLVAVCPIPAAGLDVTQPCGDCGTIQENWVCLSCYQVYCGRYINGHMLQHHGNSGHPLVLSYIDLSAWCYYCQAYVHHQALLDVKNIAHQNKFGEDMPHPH

[2] = Metabolic stability in rat liver microsomes assessed as parent compound remaining at 1 uM measured after 5 mins by LC-MS/MS analysis; assay type: ADME, Microsome; settings: read-out: Stability
HepG2 [3] = experiment: Cell cycle arrest in human HepG2 cells assessed as accumulation at G2/M phase at 2.5 uM measured after 48 hrs by propidium iodide staining based flow cytometry (reference value: 12.37%); assay type: functional
HepG2 [4] = experiment: Inhibition of colony formation in human HepG2 cells measured after 24 hrs; assay type: functional, cell-based; settings: dose 1.25-20 µM, DDE = dose-dependent effect
HepG2 [5] = experiment: Induction of apoptosis in human HepG2 cells measured after 48 hrs by Annexin V-FITC/propidium iodide staining based flow cytometry; assay type: functional, cell-based; settings: dose 1.25-25 µM, DDE = dose-dependent effect
HepG2 [6] = experiment: Antiinvasive activity against human HepG2 cells at 20 uM measured after 24 hrs by trans-well assay; assay type: functional, cell-based; settings: DDE = dose-dependent effect
[7] = target: T2, Histone-lysine N-methyltransferase EHMT1 (Homo sapiens, UniProt Q9H9B1); experiment: Inhibition of GLP (unknown origin)
T2 sequence (Q9H9B1 whole entry): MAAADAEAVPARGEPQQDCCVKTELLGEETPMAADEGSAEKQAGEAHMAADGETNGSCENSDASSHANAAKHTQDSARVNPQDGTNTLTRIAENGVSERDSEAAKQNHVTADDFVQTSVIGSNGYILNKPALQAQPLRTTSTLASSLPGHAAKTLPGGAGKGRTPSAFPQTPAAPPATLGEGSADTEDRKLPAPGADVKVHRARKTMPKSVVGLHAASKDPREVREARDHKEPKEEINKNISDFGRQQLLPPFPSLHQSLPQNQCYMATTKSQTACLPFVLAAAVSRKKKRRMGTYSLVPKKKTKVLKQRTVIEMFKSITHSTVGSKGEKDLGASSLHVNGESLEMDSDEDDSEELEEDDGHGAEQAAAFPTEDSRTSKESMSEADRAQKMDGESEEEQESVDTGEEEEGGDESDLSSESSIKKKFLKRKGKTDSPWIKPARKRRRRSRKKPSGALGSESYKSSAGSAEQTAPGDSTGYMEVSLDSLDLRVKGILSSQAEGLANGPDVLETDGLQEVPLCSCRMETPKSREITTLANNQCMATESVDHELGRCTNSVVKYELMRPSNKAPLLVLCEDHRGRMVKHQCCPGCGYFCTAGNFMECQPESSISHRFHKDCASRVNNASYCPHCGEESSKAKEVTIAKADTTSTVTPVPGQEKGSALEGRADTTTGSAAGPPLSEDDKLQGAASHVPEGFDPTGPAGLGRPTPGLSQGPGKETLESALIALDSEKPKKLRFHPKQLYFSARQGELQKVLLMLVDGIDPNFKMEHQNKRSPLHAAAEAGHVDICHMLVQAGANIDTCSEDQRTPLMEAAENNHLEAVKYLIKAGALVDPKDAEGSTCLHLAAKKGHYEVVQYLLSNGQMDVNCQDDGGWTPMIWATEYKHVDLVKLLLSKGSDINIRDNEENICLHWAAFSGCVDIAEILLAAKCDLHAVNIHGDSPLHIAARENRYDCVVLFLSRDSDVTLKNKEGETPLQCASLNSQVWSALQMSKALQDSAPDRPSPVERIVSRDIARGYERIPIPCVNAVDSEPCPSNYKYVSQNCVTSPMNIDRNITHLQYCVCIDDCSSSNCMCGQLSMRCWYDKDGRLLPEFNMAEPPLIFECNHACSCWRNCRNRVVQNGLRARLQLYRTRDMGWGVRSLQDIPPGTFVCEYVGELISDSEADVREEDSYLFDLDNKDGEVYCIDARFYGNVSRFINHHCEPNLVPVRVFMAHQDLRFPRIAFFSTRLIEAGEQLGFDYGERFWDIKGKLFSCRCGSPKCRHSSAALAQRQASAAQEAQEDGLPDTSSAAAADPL

HepG2 [8] = experiment: Cell cycle arrest in human HepG2 cells assessed as accumulation at G0/G1 phase at 2.5 uM measured after 48 hrs by propidium iodide staining based flow cytometry (reference value: 55.24%); assay type: functional

pIC50 (HCT-116): 4.96
pIC50 [1]: 7.89
remaining at 5 min, 1 µM [2]: 81.1%
pIC50 [7]: 8.89
Structure (SMILES): COc1cc2nc(N3CCN(CCCCCC(=O)NO)CC3)nc(NC3CCN(Cc4ccccc4)CC3)c2cc1OC
Activity (HepG2 [3]): 13.29%
inhibition (HepG2 [4]): Dde
Activity (HepG2 [5]): Dde
Activity (HepG2 [6]): Dde
Activity (HepG2 [8]): 57.88%

Source: ChEMBL document CHEMBL5143537, “Quinazoline-based hydroxamic acid derivatives as dual histone methylation and deacetylation inhibitors for potential anticancer agents” (Bioorg Med Chem, 2022)
